Assay results reported in patent publication US7109193B2, “Tricyclic diazepines tocolytic oxytocin receptor antagonists” (Wyeth, priority 2001, dated 2006).

Molecular target: T1, human vasopressin V1a receptor subtype (Homo sapiens, UniProt P37288)
T1 construct: host or cells: CHO cells (pZeoSV vector for the Thibonnier line)
Test: Vasopressin binding in Chinese Hamster Ovary cell membranes expressing human vasopressin V1a subtype receptors
Details: 100 nM, CHO cell membranes, [3H]Manning ligand, values without parentheses
Method in brief: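 Membranes from CHO cells expressing human V1a receptor were incubated with [3H]Manning ligand (added as 20 μL of 8 nM) in pH 7.4 Tris buffer with MgCl2, BSA and protease inhibitors, 60 min at room temperature. Bound radioactivity was counted after filtration; values are percent inhibition at a stated concentration or IC50.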

T1 sequence (P37288 whole entry): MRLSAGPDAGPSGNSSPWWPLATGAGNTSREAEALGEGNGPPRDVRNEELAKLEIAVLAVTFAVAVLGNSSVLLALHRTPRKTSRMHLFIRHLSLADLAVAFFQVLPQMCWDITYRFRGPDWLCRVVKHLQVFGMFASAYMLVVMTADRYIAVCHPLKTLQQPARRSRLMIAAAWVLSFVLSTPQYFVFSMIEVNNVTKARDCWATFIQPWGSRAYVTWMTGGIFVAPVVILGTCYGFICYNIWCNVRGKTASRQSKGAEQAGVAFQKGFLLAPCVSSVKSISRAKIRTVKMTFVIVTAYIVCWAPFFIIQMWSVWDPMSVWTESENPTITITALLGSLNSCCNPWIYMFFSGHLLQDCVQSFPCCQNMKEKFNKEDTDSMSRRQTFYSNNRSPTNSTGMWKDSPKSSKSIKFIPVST

SMILES	inhibition at 0.1 µM [%]
COc1cc(C(=O)N2Cc3ccc(C(=O)N4CCN(CCCN(C)C)CC4)n3Cc3ccccc32)ccc1-c1cccc2ccccc12 [Example 253, {4-[3-(Dimethylamino)propyl]-1-piperazinyl}{10-[3-methoxy-4-(1-naphthyl)benzoyl]-10,11-dihydro-5H-pyrrolo[2,1-c][1,4]benzodiazepin-3-yl}methanone]	16
COc1cccc(-c2ccc(C(=O)N3Cc4ccc(C(=O)N5CCN(C)CC5)n4Cc4ccccc43)cc2OC)c1 [Example 57, {10-[(2,3′-Dimethoxy[1,1′-biphenyl]-4-yl)carbonyl]-10,11-dihydro-5H-pyrrolo[2,1-c][1,4]benzodiazepin-3-yl}(4-methyl-1-piperazinyl)methanone]	15
COc1cccc(-c2ccc(C(=O)N3Cc4ccc(C(=O)N5CCN(C)CC5)n4Cc4ccccc43)cc2C)c1 [Example 51, {10-[(3′-Methoxy-2-methyl[1,1′-biphenyl]-4-yl)carbonyl]-10,11-dihydro-5H-pyrrolo[2,1-c][1,4]benzodiazepin-3-yl}(4-methyl-1-piperazinyl)methanone]	14
COc1cc(C(=O)N2Cc3cccn3Cc3ccccc32)ccc1-c1ccccc1C(F)(F)F [Example 19D, (10,11-Dihydro-5H-pyrrolo[2,1-c][1,4]benzodiazepin-10-yl)-(2-methoxy-2′-trifluoromethyl-[1,1′-biphenyl]-4-yl)-methanone]	51
COc1cccc(-c2ccc(C(=O)N3Cc4ccc(C(=O)N5CCN(CCCN(C)C)CC5)n4Cc4ccccc43)cc2C)c1 [Example 248, {4-[3-(Dimethylamino)propyl]-1-piperazinyl}{10-[(3′-methoxy-2-methyl[1,1′-biphenyl]-4-yl)carbonyl]-10,11-dihydro-5H-pyrrolo[2,1-c][1,4]benzodiazepin-3-yl}methanone]	17
COc1ccccc1-c1ccc(C(=O)N2Cc3ccc(C(=O)NCCCN(C)C)n3Cc3ccccc32)cc1C [Example 72, N-[3-(Dimethylamino)propyl]-10-[(2′-methoxy-2-methyl[1,1′-biphenyl]-4-yl)carbonyl]-10,11-dihydro-5H-pyrrolo[2,1-c][1,4]benzodiazepine-3-carboxamide]	8
COc1cc(C(=O)N2Cc3ccc(C(=O)N4CCCN(C)CC4)n3Cc3ccccc32)ccc1-c1cccc2ccccc12 [Example 68, {10-[3-Methoxy-4-(1-naphthyl)benzoyl]-10,11-dihydro-5H-pyrrolo[2,1-c][1,4]benzodiazepin-3-yl}(4-methyl-1,4-diazepan-1-yl)methanone]	9
COc1ccccc1-c1ccc(C(=O)N2Cc3ccc(C(=O)N[C@H]4CN5CCC4CC5)n3Cc3ccccc32)cc1OC [Example 299, N-[(3R)-1-Azabicyclo[2.2.2]oct-3-yl]-10-[(2,2′-dimethoxy[1,1′-biphenyl]-4-yl)carbonyl]-10,11-dihydro-5H-pyrrolo[2,1-c][1,4]benzodiazepine-3-carboxamide]	14
CN1CCCN(C(=O)c2ccc3n2Cc2ccccc2N(C(=O)c2ccc(-c4cccc5ccccc45)cc2Cl)C3)CC1 [Example 71, {10-[2-Chloro-4-(1-naphthyl)benzoyl]-10,11-dihydro-5H-pyrrolo[2,1-c][1,4]benzodiazepin-3-yl}(4-methyl-1,4-diazepan-1-yl)methanone]	4
COc1ccccc1-c1ccc(C(=O)N2Cc3ccc(C(=O)N4CCCN(C)CC4)n3Cc3ccccc32)cc1C [Example 62, {10-[(2′-Methoxy-2-methyl[1,1′-biphenyl]-4-yl)carbonyl]-10,11-dihydro-5H-pyrrolo[2,1-c][1,4]benzodiazepin-3-yl}(4-methyl-1,4-diazepan-1-yl)methanone]	10
CN(C)CCCN1CCN(C(=O)c2ccc3n2Cc2ccccc2N(C(=O)c2ccc(-c4cccc5ccccc45)cc2Cl)C3)CC1 [Example 256, {10-[2-Chloro-4-(1-naphthyl)benzoyl]-10,11-dihydro-5H-pyrrolo[2,1-c][1,4]benzodiazepin-3-yl}{4-[3-(dimethylamino)propyl]-1-piperazinyl}methanone]	7
O=C(c1ccc(-c2ccccc2)nc1)N1Cc2cccn2Cc2ccccc21 [Example 29, (6-Phenyl-pyridin-3-yl)-[10,11-dihydro-5H-pyrrolo[2,1-c][1,4]benzodiazepin-10-yl]methanone]	74
COc1ccccc1-c1ccc(C(=O)N2Cc3ccc(C(=O)N4CCN(CCCN(C)C)CC4)n3Cc3ccccc32)cc1OC [Example 254, {10-[(2,2′-Dimethoxy[1,1′-biphenyl]-4-yl)carbonyl]-10,11-dihydro-5H-pyrrolo[2,1-c][1,4]benzodiazepin-3-yl}{4-[3-(dimethylamino)propyl]-1-piperazinyl}methanone]	7
COc1ccccc1-c1ccc(C(=O)N2Cc3ccc(C(=O)N[C@H]4CN5CCC4CC5)n3Cc3ccccc32)cc1 [Example 296, N-[(3R)-1-Azabicyclo[2.2.2]oct-3-yl]-10-[(2′-methoxy[1,1′-biphenyl]-4-yl)carbonyl]-10,11-dihydro-5H-pyrrolo[2,1-c][1,4]benzodiazepine-3-carboxamide]	31
COc1cc(C(=O)N2Cc3ccc(C(=O)NCCCN(C)C)n3Cc3ccccc32)ccc1-c1ccccc1C [Example 77, N-[3-(Dimethylamino)propyl]-10-[(2-methoxy-2′-methyl[1,1′-biphenyl]-4-yl)carbonyl]-10,11-dihydro-5H-pyrrolo[2,1-c][1,4]benzodiazepine-3-carboxamide]	44
COc1ccccc1-c1ccc(C(=O)N2Cc3ccc(C(=O)NCCCN(C)C)n3Cc3ccccc32)cc1 [Example 75, N-[3-(Dimethylamino)propyl]-10-[(2′-methoxy[1,1′-biphenyl]-4-yl)carbonyl]-10,11-dihydro-5H-pyrrolo[2,1-c][1,4]benzodiazepine-3-carboxamide]	27
COc1cc(-c2ccccc2C)c(Cl)cc1C(=O)N1Cc2ccc(C(=O)N3CCN(CCCN(C)C)CC3)n2Cc2ccccc21 [Example 251, {10-[(6-Chloro-3-methoxy-2′-methyl[1,1′-biphenyl]-4-yl)carbonyl]-10,11-dihydro-5H-pyrrolo[2,1-c][1,4]benzodiazepin-3-yl}{4-[3-(dimethylamino)propyl]-1-piperazinyl}methanone]	6
COc1cc(-c2ccccc2C)c(Cl)cc1C(=O)N1Cc2ccc(C(=O)N[C@@H]3CN4CCC3CC4)n2Cc2ccccc21 [Example 297, N-[(3S)-1-Azabicyclo[2.2.2]oct-3-yl]-10-[(6-chloro-3-methoxy-2′-methyl-[1,1′-biphenyl]-4-yl)carbonyl]-10,11-dihydro-5H-pyrrolo[2,1-c][1,4]benzodiazepine-3-carboxamide]	-2

Continued, values first:

inhibition at 0.1 µM [%]	SMILES
4	COc1cc(C(=O)N2Cc3ccc(C(=O)N4CCN(CCCN(C)C)CC4)n3Cc3ccccc32)ccc1-n1c(C)ccc1C [Example 320, {4-[3-(Dimethylamino)propyl]-1-piperazinyl}{10-[4-(2,5-dimethyl-1H-pyrrol-1-yl)-3-methoxybenzoyl]-10,11-dihydro-5H-pyrrolo[2,1-c][1,4]benzodiazepin-3-yl}methanone]
-5	COc1cc(C(=O)N2Cc3ccc(C(=O)N4CCC(N5CCCCC5)CC4)n3Cc3ccccc32)ccc1-n1c(C)ccc1C [Example 311, {10-[4-(2,5-Dimethyl-1H-pyrrol-1-yl)-3-methoxy-benzoyl]-10,11-dihydro-5H-pyrrolo[2,1-c][1,4]benzodiazepin-3-yl}[4-(1-piperidinyl)-1-piperidinyl]-methanone]
2	Cc1cc(C(=O)N2Cc3cccn3Cc3ncccc32)ccc1-c1ccccc1C(F)(F)F [Example 323F, (2-Methyl-2′-trifluoromethyl-[1,1′-biphenyl]-4-yl)-(4H,10H-3a,5,9-triaza-benzo[f]azulen-9-yl)-methanone]
0	COc1cc(C(=O)N2Cc3ccc(C(=O)N4CCN(CCN(C)C)CC4)n3Cc3ccccc32)ccc1-n1c(C)ccc1C [Example 316, {4-[2-(Dimethylamino)ethyl]-1-piperazinyl}{10-[4-(2,5-dimethyl-1H-pyrrol-1-yl)-3-methoxybenzoyl]-10,11-dihydro-5H-pyrrolo[2,1-c][1,4]benzodiazepin-3-yl}methanone]
6	COc1ccccc1-c1ccc(C(=O)N2Cc3ccc(C(=O)n4ccnc4)n3Cc3ccccc32)cc1C [Example 292, 1H-Imidazol-1-yl-{10-[(2′-methoxy-2-methyl[1,1′-biphenyl]-4-yl)carbonyl]-10,11-dihydro-5H-pyrrolo[2,1-c][1,4]benzodiazepin-3-yl}methanone]
2	COc1cc(C(=O)N2Cc3ccc(C(=O)N4CCC(N5CCCC5)CC4)n3Cc3ccccc32)ccc1-n1c(C)ccc1C [Example 313, {10-[4-(2,5-Dimethyl-1H-pyrrol-1-yl)-3-methoxybenzoyl]-10,11-dihydro-5H-pyrrolo[2,1-c][1,4]benzodiazepin-3-yl}[4-(1-pyrrolidinyl)-1-piperidinyl]methanone]
2	COc1ccccc1-c1ccc(C(=O)N2Cc3ccc(C(=O)n4ccnc4)n3Cc3ccccc32)cc1OC [Example 293, {10-[(2,2′-Dimethoxy[1,1′-biphenyl]-4-yl)carbonyl]-10,11-dihydro-5H-pyrrolo[2,1-c][1,4]benzodiazepin-3-yl}(1H-imidazol-1-yl)methanone]
-7	COc1cc(C(=O)N2Cc3ccc(C(=O)N4CCCN(C)CC4)n3Cc3ccccc32)ccc1-n1c(C)ccc1C [Example 307, {10-[4-(2,5-Dimethyl-1H-pyrrol-1-yl)-3-methoxybenzoyl]-10,11-dihydro-5H-pyrrolo[2,1-c][1,4]benzodiazepin-3-yl}(4-methyl-1,4-diazepan-1-yl)methanone]
